Experimental findings from patent US20230183705A1, “PRODUCTS FOR SUPPRESSING OR REDUCING THE EXPRESSION OR ACTIVITY OF A SNORNA AND USES THEREOF IN THE TREATMENT OF CANCER” (NINOVAX, priority 2020, published 2023) are described below.

What all share (type): cell-based, human
Series [1] concerns Ribosomes pathways. Kind of series: Transcriptomic analysis (RNA-seq) with KEGG analysis in HCT116 cells. Particulars: HCT116, siRNA treated versus non-treated cells. On the procedure:
Briefly, 99 genes over 138 genes of this pathway are deregulated.
The effect of the knock-down of the snoRNA-jouvence in HCT116 cells was assessed by the transfection of short interfering RNA (siRNA). First, the cells were seeded in 12-well plates (in triplicates), with the following number of cells per well: HCT116 and MCF7: 3.0×10^4, K562: 2.5 x10^4, A549: 2.0x10^4, and U87: 6.0x10^4. […] Cell suspensions were directly transfected with the corresponding siRNA (reverse transfection) at a final concentration of 10 nM per well, using the Lipofectamine RNAiMAX transfection reagent (ThermoFisher Scientific, USA). Forty-eight hours after the first siRNA reverse transfection, a forward transfection was performed on the adherent cells (at the same concentration as the first reverse transfection). Again, forty-eight hours after the siRNA forward transfection, a second forward transfection was performed on the adherent cells (at the same concentration). Then, after 72 h (meaning at J7 from the starting point), the medium was changed and cells were counted and compared to the different controls. For the RNA extraction and RNA-seq analysis performed in HCT116 cells, cell pellets were made under the same conditions (at J7). Experiments were performed in triplicates and the specific knock-down of the snoRNA-jouvence was validated by standard RT-qPCR (TaqMan). […]
In brief, technically, RNA concentration was measured using Qubit® RNA Assay Kit in Qubit® 2.0 Flurometer (Life Technologies, CA, USA). RNA integrity was assessed using the RNA Nano 6000 Assay Kit of the Bioanalyzer 2100 system (Agilent Technologies, CA, USA). […] At last, PCR products were purified (AMPure XP system) and library quality was assessed on the Agilent Bioanalyzer 2100 system. […] After cluster generation, the library preparations were sequenced on an Illumina Hiseq platform and 125 bp/150 bp paired-end reads were generated. […]

Series [2] has as its system U87 cells (glioblastoma). Briefly: Cell proliferation (cell counting) after siRNA knock-down of snoRNA-jouvence. The conditions noted are these: siRNA 10 nM, three transfections at day 0, 2, 4, cells counted at day 7. On the procedure:
(§1) The siRNA treatment consists of three reverse transfections applied at day 0, day 2, day 4, followed by the determination of the number of cells at day 7 for A-B-C-D. For E, a single treatment has been done at day 0, and the number of cells was counted two days later. siRNA was used at a concentration of 10 nM. Five different human cancer cell lines were used. A) HCT116 cells (colon cancer), B) MCF7 cells (breast cancer), C) U87 cells (glioblastoma), D) A549 cells (lung cancer), and E) K562 cells (leukemia). In siRNA-treated cells, inventors observed a strong reduction of the number of cells, by about 50% or more, except in E in which the reduction was about 10% probably due to the fact that only a single treatment has been performed. […] In si-RNA treated cells, inventors observed a 40% reduction of snoRNA-jouvence expression.
(§2) All human cancer cell lines were provided from ATCC. HCT116 were cultured in McCoy’s 5A medium (Gibco, Invitrogen, USA), supplemented with 10% Fetal Bovine Serum (FBS) (Biowest, France). MCF7, A549, and K562 cells were cultured in RPMI 1640 + Glutamax medium (Gibco, Invitrogen, USA), supplemented with 10% Fetal Bovine Serum (FBS) (Biowest, France). U87 cells were cultured in Dulbecco’s modified Eagle’s medium (DMEM) (Gibco), supplemented with 10% FBS. Cells were incubated at 37° C. in a humidified atmosphere containing 5% CO2. The medium was changed every two days, and cells were transferred using 0.05% trypsin/EDTA (Gibco Invitrogen).
(§3) The effect of the knock-down of the snoRNA-jouvence in HCT116 cells was assessed by the transfection of short interfering RNA (siRNA). First, the cells were seeded in 12-well plates (in triplicates), with the following number of cells per well: HCT116 and MCF7: 3.0×10^4, K562: 2.5 x10^4, A549: 2.0x10^4, and U87: 6.0x10^4. […] Cell suspensions were directly transfected with the corresponding siRNA (reverse transfection) at a final concentration of 10 nM per well, using the Lipofectamine RNAiMAX transfection reagent (ThermoFisher Scientific, USA). Forty-eight hours after the first siRNA reverse transfection, a forward transfection was performed on the adherent cells (at the same concentration as the first reverse transfection). Again, forty-eight hours after the siRNA forward transfection, a second forward transfection was performed on the adherent cells (at the same concentration). Then, after 72 h (meaning at J7 from the starting point), the medium was changed and cells were counted and compared to the different controls. For the RNA extraction and RNA-seq analysis performed in HCT116 cells, cell pellets were made under the same conditions (at J7). Experiments were performed in triplicates and the specific knock-down of the snoRNA-jouvence was validated by standard RT-qPCR (TaqMan).
(§4) Study was performed in five different human cancer cell lines, HCT116 cells (colon cancer), MCF7 cells (breast cancer), U87 cells (glioblastoma), A549 cells (lung cancer), and K562 cells (leukemia). The proliferation rate of siRNA-treated cells (snoRNA jouvence knock-down) compared to non-treated Control cells was analysed by cell counting at J7. Briefly, the supernatant was harvested and cells washed with PBS 1X. Then, cells were trypsinized with 300 µl of 0.05% trypsin/EDTA (Gibco) per well. Trypsine was inactivated with 700 µL of the corresponding medium per well, and then counted with the VicellXR (Cell viability Analyzer, Beckman Coulter).

Series [3] deals with A549 cells (lung cancer). The description is as above. Particulars: siRNA 10 nM, three transfections at day 0, 2, 4, cells counted at day 7. The protocol:
as §1, §2, §3, §4

Series [4] concerns K562 cells (leukemia). The series is described as above. The conditions noted are these: siRNA 10 nM, single treatment at day 0, cells counted two days later. On the procedure:
as §1, §2, §3, §4

The test system of series [5] is HCT116 cells (colon cancer). Described as above. Particulars: siRNA 10 nM, three transfections at day 0, 2, 4, cells counted at day 7. On the procedure:
as §1, §2, §3, §4

Series [6] concerns MCF7 cells (breast cancer). Described as above. Particulars: siRNA 10 nM, three transfections at day 0, 2, 4, cells counted at day 7. The protocol: as §1, §2, §3, §4
In series [7] the test system is snoRNA-jouvence. Briefly: Expression of the snoRNA-jouvence by RT-qPCR (Taqman) in siRNA-treated HCT116 cells. Particulars: siRNA-treated HCT116 cells compared to non-treated control HCT116 cells, siRNA 10 nM. On the procedure:
as §1
The effect of the knock-down of the snoRNA-jouvence in HCT116 cells was assessed by the transfection of short interfering RNA (siRNA). First, the cells were seeded in 12-well plates (in triplicates), with the following number of cells per well: HCT116 and MCF7: 3.0×10^4, K562: 2.5 x10^4, A549: 2.0x10^4, and U87: 6.0x10^4. […] Then, after 72 h (meaning at J7 from the starting point), the medium was changed and cells were counted and compared to the different controls. […]
(In general: In qPCR the cycle at which signal appears reflects the starting amount.)

“siRNA: silencer selected siRNA (Lock-Nucleotide-Acid siRNA) comprising SEQ ID NO: 3 as sense and SEQ ID NO: 4 as antisense sequence, against snoRNA-jouvence (sense GGCUAUUGUGGACAGAGGA; antisense UCCUCUGUCCACAAUAGCC; Silencer Select LNA-modified siRNA, pattern not given here)”: the “deregulated genes of the Ribosomes pathways (over 138 genes)” value in series [1] is 99 genes. Also, the “downregulated genes of the Ribosomes pathways” value in series [1] stood at 92 genes. Besides, the “upregulated genes of the Ribosomes pathways” value in series [1] was found to be 7 genes. The “reduction of the number of cells” value is at least 50% in series [2]; at least 50% in series [3]; “about 10%” in series [4]; at least 50% in series [5]; at least 50% in series [6]. Besides, the “reduction of snoRNA-jouvence expression” value in series [7] was determined as 40%.
